Experimental findings from US11034717B2, “Farnesoid X receptor modulators” (Intercept Pharmaceuticals, Inc., priority 2015, dated 2021) are described below.

Data set [1] has as its target hTGR5 (Homo sapiens (Human), UniProt Q8TDU6). Nature of the data set: HTR-FRET intracellular cAMP assay in NCI-H716 cells. It is filed as cell-based. The following applies: Table 1; Ref LCA. In general terms: Changes in cAMP serve as a functional read-out for many G protein-coupled receptors.
Data set [2] in a line: 1-octanol-water partition coefficient of ionized species. In kind it is physicochemical. On the procedure: (§1) Physiochemical properties of a compound of the invention such as water solubility, critical micellar concentration, surface tension, and LogPA were determined using methods known in the art.
Data set [3] in a line: Critical micellar concentration. The conditions noted are these: determined in […] NaCl water solution. In kind it is physicochemical. As for the experimental part:
as §1

The EC50 is the concentration giving half of the maximal effect. Low readings indicate greater potency, high ones weaker potency.

Chain of hTGR5 (Q8TDU6 whole entry): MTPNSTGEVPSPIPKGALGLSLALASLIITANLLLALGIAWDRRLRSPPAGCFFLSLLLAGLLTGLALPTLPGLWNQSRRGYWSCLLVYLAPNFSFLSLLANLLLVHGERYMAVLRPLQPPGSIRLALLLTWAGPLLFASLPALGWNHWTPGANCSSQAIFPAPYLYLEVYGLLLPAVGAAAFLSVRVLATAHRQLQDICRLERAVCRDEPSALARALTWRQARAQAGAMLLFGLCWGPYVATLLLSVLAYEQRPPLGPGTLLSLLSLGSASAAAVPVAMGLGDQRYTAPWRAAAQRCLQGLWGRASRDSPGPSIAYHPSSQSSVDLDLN

In turn, `CC[C@H]1[C@@H](O)C2C3CC[C@H]([C@H](C)CCO)[C@@]3(C)C[C@H](O)C2[C@@]2(C)CC[C@@H](O)C[C@@H]12` (stereo partly drawn) [Compound 2, 3α,7α,11β-trihydroxy-6α-ethyl-24-nor-5β-cholan-23-ol] gave an EC50 in data set [1] of 93 µM.

On to `CC[C@H]1[C@@H](O)[C@@H]2[C@H]([C@@H](O)C[C@]3(C)[C@@H]([C@H](C)CCCO)CC[C@@H]23)[C@@]2(C)CC[C@@H](O)C[C@@H]12` [Compound 4, 3α,7α,11β-trihydroxy-6α-ethyl-5β-cholan-24-ol], for which, in data set [1], the EC50 is 13.7 ± 2.3 µM.

On to `CC[C@H]1[C@@H](O)[C@@H]2[C@H](CC[C@]3(C)[C@@H]([C@H](C)CCC(=O)O)CC[C@@H]23)[C@@]2(C)CC[C@@H](O)C[C@@H]12` [Compound A, 6α-ethyl-3α,7α-dihydroxy-5β-cholan-24-oic acid, reference compound], for which, in data set [2], the “LogPA−: 1-octanol-water partition coefficient as ionized species” value (“LogPA− … as ionized species” below) is 2.5. Also, in data set [3], the “CMC: Critical Micellar Concentration” value turned out to be 2.9 mM.

Regarding `CC[C@H]1[C@@H](O)C2C3C[C@H](O)[C@H]([C@H](C)CCC(=O)O)[C@@]3(C)CCC2[C@@]2(C)CC[C@@H](O)C[C@@H]12` (some centres unmarked) [Compound E, reference compound], the “LogPA− … as ionized species” value in data set [2] is given as 1.6. Moreover, in data set [3], the “CMC: Critical Micellar Concentration” value amounted to 5.9 mM.

Consider `CC[C@H]1[C@@H](O)C2C3CC[C@H]([C@H](C)C[C@H](C)C(=O)O)[C@@]3(C)CCC2[C@@]2(C)CC[C@@H](O)C[C@@H]12` (stereo partly drawn) [Compound D, 6α-ethyl-23(R)-methyl chenodeoxycholic acid], for which the “LogPA− … as ionized species” value in data set [2] is 2.9.

The molecule “6α-ethyl-3α,7α,23-trihydroxy-24-nor-5β-cholan-23-sulphate sodium salt [Compound B, reference compound]” showed an EC50 in data set [1] of 0.63 µM.

`CC[C@H]1[C@@H](O)C2C3CC[C@H]([C@H](C)CC(=O)O)[C@@]3(C)C[C@H](O)C2[C@@]2(C)CC[C@@H](O)C[C@@H]12` (stereo partly drawn) [Compound 1, 3α,7α,11β-trihydroxy-6α-ethyl-24-nor-5β-cholan-23-oic acid] displayed an EC50 in data set [1] above 100 µM.

On to `CC[C@H]1[C@@H](O)C2C3CCC(C(C)CC(C)C(=O)O)[C@@]3(C)[C@@H](O)CC2[C@@]2(C)CC[C@@H](O)C[C@@H]12` (stereo in doubt) [Compound C, 6α-ethyl-23(S)-methyl-3α,7α,12α trihydroxy-5β-cholan-24-oic acid, reference compound], for which the “LogPA− … as ionized species” value in data set [2] is listed as 1.4. In addition, the “CMC: Critical Micellar Concentration” value in data set [3] came out at 2 mM.
